Test results: ChEMBL document CHEMBL4138123, “Design, synthesis and biological evaluation of novel pyrazolochalcones as potential modulators of PI3K/Akt/mTOR pathway and inducers of apoptosis in breast cancer cells” (Eur J Med Chem, 2017)

Columns and labels:
Format in all cases: functional
[1] = test system: A549; test: Cytotoxicity against human A549/ATCC cells assessed as cell growth at 10 uM after 48 hrs by sulforhodamine B assay relative to control; conditions: A549, 48 h, read-out: Activity
[2] = test system: MDA-MB-435; test: Cytotoxicity against human MDA-MB-435 cells assessed as cell growth at 100 uM after 48 hrs by sulforhodamine B assay relative to control; conditions: MDA-MB-435, 48 h, read-out: Activity
[3] = test system: Malme-3M; test: Cytotoxicity against human MALME-3M cells assessed as cell growth at 0.1 uM after 48 hrs by sulforhodamine B assay relative to control; conditions: read-out: Activity
[4] = test system: NCI/ADR-RES; test: Cytotoxicity against human NCI/ADR-RES cells assessed as cell growth at 0.01 uM after 48 hrs by sulforhodamine B assay relative to control; conditions: read-out: Activity
[5] = test system: HT-29; test: Cytotoxicity against human HT-29 cells assessed as cell growth at 100 uM after 48 hrs by sulforhodamine B assay relative to control; conditions: HT-29, 48 h, read-out: Activity
[6] = test system: MDA-MB-468; test: Cytotoxicity against human MDA-MB-468 cells assessed as cell growth at 1 uM after 48 hrs by sulforhodamine B assay relative to control; conditions: MDA-MB-468, 48 h, read-out: Activity
[7] = test system: ACHN; test: Cytotoxicity against human ACHN cells assessed as cell growth at 100 uM after 48 hrs by sulforhodamine B assay relative to control; conditions: read-out: Activity
[8] = test system: UACC-257; test: Cytotoxicity against human UACC257 cells assessed as cell growth at 1 uM after 48 hrs by sulforhodamine B assay relative to control; conditions: UACC-257, 48 h, read-out: Activity
[9] = test system: UO-31; test: Cytotoxicity against human UO31 cells assessed as cell growth at 0.01 uM after 48 hrs by sulforhodamine B assay relative to control; conditions: UO-31, 48 h, read-out: Activity
[10] = test system: ACHN; test: Cytotoxicity against human ACHN cells assessed as growth inhibition after 48 hrs by sulforhodamine B assay
[11] = test system: K562; test: Cytotoxicity against human K562 cells assessed as cell growth at 10 uM after 48 hrs by sulforhodamine B assay relative to control; conditions: K562, 48 h, read-out: Activity
[12] = test system: SW-620; test: Cytotoxicity against human SW620 cells assessed as cell growth at 100 uM after 48 hrs by sulforhodamine B assay relative to control; conditions: SW-620, 48 h, read-out: Activity
[13] = test system: NCI-H460; test: Cytotoxicity against human NCI-H460 cells assessed as cell growth at 0.01 uM after 48 hrs by sulforhodamine B assay relative to control; conditions: NCI-H460, 48 h, read-out: Activity
[14] = test system: MCF7; test: Cytotoxicity against human MCF7 cells assessed as cell growth at 10 uM after 48 hrs by sulforhodamine B assay relative to control; conditions: MCF7, 48 h, read-out: Activity
[15] = test system: RXF 393; test: Cytotoxicity against human RXF393 cells assessed as cell growth at 0.01 uM after 48 hrs by sulforhodamine B assay relative to control; conditions: RXF 393, 48 h, read-out: Activity
[16] = test system: SN12C; test: Cytotoxicity against human SN12C cells assessed as growth inhibition after 48 hrs by sulforhodamine B assay
[17] = test system: 786-0; test: Cytotoxicity against human 786-0 cells assessed as cell growth at 100 uM after 48 hrs by sulforhodamine B assay relative to control; conditions: 786-0, 48 h, read-out: Activity
[18] = test system: A498; test: Cytotoxicity against human A498 cells assessed as cell growth at 0.1 uM after 48 hrs by sulforhodamine B assay relative to control; conditions: A498, 48 h, read-out: Activity
[19] = test system: SR; test: Cytotoxicity against human SR cells assessed as cell growth at 0.01 uM after 48 hrs by sulforhodamine B assay relative to control; conditions: read-out: Activity
[20] = test system: CCRF-CEM; test: Cytotoxicity against human CCRF-CEM cells assessed as cell growth at 100 uM after 48 hrs by sulforhodamine B assay relative to control; conditions: read-out: Activity
[21] = test system: UACC-62; test: Cytotoxicity against human UACC62 cells assessed as cell growth at 1 uM after 48 hrs by sulforhodamine B assay relative to control; conditions: UACC-62, 48 h, read-out: Activity
[22] = test system: BT-549; test: Cytotoxicity against human BT549 cells assessed as cell growth at 0.1 uM after 48 hrs by sulforhodamine B assay relative to control; conditions: BT-549, 48 h, read-out: Activity
[23] = test system: T47D; test: Cytotoxicity against human T47D cells assessed as growth inhibition after 48 hrs by sulforhodamine B assay
[24] = test system: Malme-3M; test: Cytotoxicity against human MALME-3M cells assessed as cell growth at 1 uM after 48 hrs by sulforhodamine B assay relative to control; conditions: read-out: Activity
[25] = test system: SK-OV-3; test: Cytotoxicity against human SKOV3 cells assessed as cell growth at 10 uM after 48 hrs by sulforhodamine B assay relative to control; conditions: SK-OV-3, 48 h, read-out: Activity
[26] = test system: SW-620; test: Cytotoxicity against human SW620 cells assessed as cell growth at 10 uM after 48 hrs by sulforhodamine B assay relative to control; conditions: SW-620, 48 h, read-out: Activity
[27] = test system: SK-OV-3; test: Cytotoxicity against human SKOV3 cells assessed as cell growth at 1 uM after 48 hrs by sulforhodamine B assay relative to control; conditions: SK-OV-3, 48 h, read-out: Activity
[28] = test system: RPMI-8226; test: Cytotoxicity against human RPMI8226 cells assessed as cell growth at 10 uM after 48 hrs by sulforhodamine B assay relative to control; conditions: RPMI-8226, 48 h, read-out: Activity
[29] = test system: PC-3; test: Cytotoxicity against human PC3 cells assessed as growth inhibition after 48 hrs by sulforhodamine B assay; conditions: PC-3, 48 h
[30] = test system: SW-620; test: Cytotoxicity against human SW620 cells assessed as cell growth at 0.1 uM after 48 hrs by sulforhodamine B assay relative to control; conditions: SW-620, 48 h, read-out: Activity
[31] = test system: NCI/ADR-RES; test: Cytotoxicity against human NCI/ADR-RES cells assessed as cell growth at 100 uM after 48 hrs by sulforhodamine B assay relative to control; conditions: read-out: Activity
[32] = test system: HL-60(TB); test: Cytotoxicity against human HL-60(TB) cells assessed as growth inhibition after 48 hrs by sulforhodamine B assay; conditions: HL-60, 48 h
[33] = test system: NCI-H23; test: Cytotoxicity against human NCI-H23 cells assessed as cell growth at 100 uM after 48 hrs by sulforhodamine B assay relative to control; conditions: NCI-H23, 48 h, read-out: Activity
[34] = test system: MCF7; test: Cytotoxicity against human MCF7 cells assessed as growth inhibition after 48 hrs by sulforhodamine B assay; conditions: MCF7, 48 h
[35] = test system: KM12; test: Cytotoxicity against human KM12 cells assessed as growth inhibition after 48 hrs by sulforhodamine B assay; conditions: KM12, 48 h

**Q.** What does the source list for `COc1cc(-c2cc(/C=C/C(=O)c3ccc4c(c3)OCO4)[nH]n2)cc(OC)c1OC`?
**A.** growth at 10 µM [1]: 26%; growth at 100 µM [2]: 4%; growth at 0.1 µM [3]: 91%; growth at 0.01 µM [4]: 96%; growth at 100 µM [5]: -73%; growth at 1 µM [6]: 74%; growth at 100 µM [7]: -69%; growth at 1 µM [8]: 81%; growth at 0.01 µM [9]: 86%; LC50 [10]: 7.32 µM; TGI [10]: 3.71 µM; growth at 10 µM [11]: -1%; growth at 100 µM [12]: 1%; growth at 0.01 µM [13]: 104%; growth at 10 µM [14]: -1%; growth at 0.01 µM [15]: 95%; LC50 [16]: > 100 µM; TGI [16]: > 100 µM; growth at 100 µM [17]: -30%; growth at 0.1 µM [18]: 79%; growth at 0.01 µM [19]: 106%; growth at 100 µM [20]: -13%; growth at 1 µM [21]: 99%; growth at 0.1 µM [22]: 99%; LC50 [23]: > 100 µM; TGI [23]: 17 µM; growth at 1 µM [24]: 94%; growth at 10 µM [25]: 33%; growth at 10 µM [26]: -9%; growth at 1 µM [27]: 102%; growth at 10 µM [28]: -41%; LC50 [29]: > 100 µM; TGI [29]: 13.7 µM; growth at 0.1 µM [30]: 96%; growth at 100 µM [31]: 1%; LC50 [32]: > 100 µM; TGI [32]: 6.36 µM; growth at 100 µM [33]: 20%; LC50 [34]: > 100 µM

**Q.** For `COc1cc(-c2cc(/C=C/C(=O)c3ccc(Cl)c(Cl)c3)[nH]n2)cc(OC)c1OC`, which growth at 10 µM [1] is on record?
**A.** 68%

**Q.** What about the growth at 100 µM [2] of the same compound?
**A.** 6%

**Q.** And the growth at 0.1 µM [3]?
**A.** 95%

**Q.** What about the growth at 0.01 µM [4] of the same compound?
**A.** 100%

**Q.** What about the growth at 100 µM [5] of the same compound?
**A.** 3%

**Q.** What about the growth at 1 µM [6] of the same compound?
**A.** 76%

**Q.** And the growth at 100 µM [7]?
**A.** 16%

**Q.** What about the LC50 [35] of the same compound?
**A.** > 100 µM

**Q.** And the TGI [35]?
**A.** > 100 µM

**Q.** And the growth at 1 µM [8]?
**A.** 90%

**Q.** What about the growth at 0.01 µM [9] of the same compound?
**A.** 85%

**Q.** What about the LC50 [10] of the same compound?
**A.** > 100 µM

**Q.** And the TGI [10]?
**A.** > 100 µM

**Q.** What about the growth at 10 µM [11] of the same compound?
**A.** 28%

**Q.** And the growth at 100 µM [12]?
**A.** -5%

**Q.** What about the growth at 0.01 µM [13] of the same compound?
**A.** 105%

**Q.** What about the growth at 10 µM [14] of the same compound?
**A.** 15%

**Q.** And the growth at 0.01 µM [15]?
**A.** 96%

**Q.** And the LC50 [16]?
**A.** > 100 µM

**Q.** What about the TGI [16] of the same compound?
**A.** > 100 µM

**Q.** What about the growth at 100 µM [17] of the same compound?
**A.** -10%

**Q.** And the growth at 0.1 µM [18]?
**A.** 89%

**Q.** What about the growth at 0.01 µM [19] of the same compound?
**A.** 104%

**Q.** What about the growth at 100 µM [20] of the same compound?
**A.** -15%

**Q.** And the growth at 1 µM [21]?
**A.** 96%

**Q.** What about the growth at 0.1 µM [22] of the same compound?
**A.** 95%

**Q.** And the LC50 [23]?
**A.** > 100 µM

**Q.** And the TGI [23]?
**A.** 15.7 µM

**Q.** And the growth at 1 µM [24]?
**A.** 95%

**Q.** And the growth at 10 µM [25]?
**A.** 26%

**Q.** And the growth at 10 µM [26]?
**A.** 47%

**Q.** What about the growth at 1 µM [27] of the same compound?
**A.** 89%

**Q.** And the growth at 10 µM [28]?
**A.** -7%

**Q.** What about the LC50 [29] of the same compound?
**A.** > 100 µM

**Q.** What about the TGI [29] of the same compound?
**A.** > 100 µM

**Q.** What about the growth at 0.1 µM [30] of the same compound?
**A.** 99%

**Q.** And the growth at 100 µM [31]?
**A.** 5%

**Q.** What about the LC50 [32] of the same compound?
**A.** > 100 µM

**Q.** What about the TGI [32] of the same compound?
**A.** 36.7 µM

**Q.** What about the growth at 100 µM [33] of the same compound?
**A.** 5%

**Q.** And the LC50 [34]?
**A.** > 100 µM

**Q.** What about the TGI [34] of the same compound?
**A.** > 100 µM
